This passage reports IC50 and inhibition in vivo results from ChEMBL document CHEMBL1127979, “Synthesis and anti-tumour activity of 6-methyl derivatives of flavone-8-acetic acid (FAA)” (Bioorg Med Chem Lett, 1994).

In brackets after ≈: the same amount, converted by molar mass.

For orientation: IC50 means the point on the concentration scale where inhibition reaches its midpoint. Read a low IC50 as inhibition by little substance. Usually inhibition in vivo stands for the percentage by which the read-out fell short of the control. Low values mean a response near the control, high ones a response far below the control.

Test [1] concerns DLD-1. The test can be described thus: In vitro concentration required to inhibit DLD1 cells. The settings on record: Homo sapiens. The format is functional, cell-based.
In test [2] the test system is HCT-8. The test is described as follows: In vitro concentration required to inhibit HCT18 cells. Format: functional, cell-based. The following applies: Homo sapiens.
Test [3] concerns HCLO cell line. The test can be described thus: In vitro concentration required to inhibit HCLO cells. The format is functional, cell-based. The settings on record: Homo sapiens.
Test [4] has as its system HRT-18 cell line. The test can be described thus: In vitro concentration required to inhibit HRT18 cells. The format is functional, cell-based. The following applies: Homo sapiens.
In test [5] the test system is K562. The test can be described thus: In vitro concentration required to inhibit K562 cells. Format: functional, cell-based. The settings on record: Homo sapiens.
The test system of test [6] is MAC15A. The test is described as follows: In vitro concentration required to inhibit MAC 15 A cells. Format: functional, cell-based. The settings on record: Mus musculus.
Test [7] concerns MAC16. The test can be described thus: In vitro concentration required to inhibit MAC 16 cells. Format: functional, cell-based. The settings on record: Mus musculus.
The subject of test [8] is MAC26. The test can be described thus: In vitro concentration required to inhibit MAC 26 cells. The format is functional, cell-based. The following applies: Mus musculus.
The test system of test [9] is Mus musculus. The test is described as follows: In vivo antitumor activity in murine tumors at a dose of 200 mg/Kg. The format is functional.
Test [10] relates to HT-29. The test can be described thus: In vitro concentration required to inhibit HT-29 cells. The format is functional, cell-based. The settings on record: Homo sapiens.

Consider `O=C(O)Cc1cccc2c(=O)cc(-c3ccccc3)oc12` [MITOFLAXONE], for which the IC50 in test [1] is greater than 500 µg/mL; in test [2] it was 245 µg/mL (≈ 874 µM); in [3], greater than 500 µg/mL; in test [4] it was 95 µg/mL (≈ 339 µM); in [5], 310 µg/mL (≈ 1110 µM); in test [6] it was 150 µg/mL (≈ 535 µM). Besides, the IC50 in [7] was determined as 180 µg/mL (≈ 642 µM); in test [8] it was 208 µg/mL (≈ 742 µM); in test [10], 390 µg/mL (≈ 1390 µM). Moreover, in test [9], at 200 mg/kg the inhibition in vivo was 83%.
